Results on three compounds are retold here after patent US7122360B1, “Polypeptides, polynucleotides and uses thereof” (University of Dundee, priority 1998, dated 2006).

Entries after “also recorded” stand apart in the source; their conditions may differ.

In test [1] the test system is CREB and ATF1. The test is described as follows: Phosphorylation of CREB (Ser133) and ATF1 (Ser63) in 293 cells, immunoblot. In kind it is cell-based, human. The conditions noted are these: for EGF-induced CREB phosphorylation: 5 μM Ro 318220, 10 μM SB 203580, 50 μM PD 98059, EGF 100 ng/ml; for UV radiation-induced phosphorylation of CREB and ATF1: 5 μM Ro 318220, 10 μM SB 203580, 50 μM PD 98059. On the procedure:
FIG. 10. […] 293 cells were pre-treated either in the presence or absence of 5 μM Ro 318220 (Ro), 10 μM SB 203580 (SB), 50 μM PD 98059 (PD), and then exposed to either (A, D) UV radiation (200 J/m^2, 30 min and then 30 min at 37° C.) (B, E) EGF (100 ng/ml, 15 min), (C) forskolin (20 μM, 15 min). The cells were lysed and proteins were separated on 10% acrylamide gels and immunoblotted using a phosphospecific antibody that recognised both CREB and ATF1 when phosphorylated on Ser133 and Ser63 respectively. The position of CREB and ATF1 on the blots is indicated.
(§1) Immunoblotting for phosphorylated CREB and ATF1. Cell extracts were prepared and immunoblotting of these carried out as described (Tan et al., 1996) using a phosphospecific antibody recognizing CREB phosphorylated on Ser 133 and ATF1 phosphorylated on Ser63 purchased from UBI (Lake Placid, USA). Detection of phosphorylated CREB and ATF1 proteins was performed using the enhanced chemiluminescence reagent (Amersham).

The test system of test [2] is CREB and ATF1. The test is described as follows: TNF induced CREB and ATF1 phosphorylation in HeLa cells. In kind it is cell-based. The settings on record: for TNF-induced phosphorylation of CREB after 15 min / TNF-induced phosphorylation of CREB and ATF1 after 5 min: 50 μM PD 98059, 10 μM SB 203580. On the procedure:
FIG. 12. […] The position of CREB and ATF1 on the blots is indicated. The time of exposure (exp) of the blots before development is indicated.
as §1

Test [3] concerns MSK1. The test is described as follows: Arsenite and FGF-induced activation of MSK1 in SK-N-MC cells. In kind it is cell-based. The conditions noted are these: for FGF-induced activation of MSK1: 50 μM PD 98059, 10 μM SB 203580, FGF 50 ng/ml 15 min. The method, then: (§2) FIG. 14. […] After cell lysis aliquots were assayed for either MSK1 (A), MAPKAP-K1 (B), MAPKAP-K2 (C) after their immunoprecipitation from the lysates or immunoblotted for phosphorylation of CREB and ATF1 (D).
Cell Culture, stimulation and cell lysis.

Test [4] concerns CREB. The test is described as follows: Arsenite and FGF-induced phosphorylation of CREB in SK-N-MC cells. In kind it is cell-based. The conditions noted are these: for FGF-induced phosphorylation of CREB: 50 μM PD 98059, 10 μM SB 203580, FGF 50 ng/ml 15 min. On the procedure: as §2, §1
Test [5] relates to COX-2 protein. The test is described as follows: Induction of COX-2 protein in RAW 264 macrophages, immunoblot. In kind it is cell-based, mouse. The conditions noted are these: LPS 100 ng/ml 4 h, 50 TM PD 98059, 10 TM SB 203580, 5 TM Ro 318220. On the procedure:
FIG. 20. […] (A) Macrophages were stimulated for the times indicated with LPS (100 ng/ml).
FIG. 22. […] (A) Macrophages were stimulated for 1 h with LPS (100 ng/ml) or for 15 min with forskolin (F) (20 TM) plus IBMX (10 TM). After cell lysis, aliquots of the lysate (30 Tg protein) were immunoblotted with a phospho-specific CREB antibody (see legend to FIG. 19 for details and molecular mass markers). (B) Macrophages were stimulated for 3 h with LPS (100 ng/ml), or forskolin (20 TM) plus IBMX (10 TM), and immunoblotting performed with a specific COX-2 antibody (materials & methods section). The marker proteins are as in FIG. 19.
(§3) Cell culture and stimulation. RAW 264 macrophages were maintained in a 95% air/5% CO2 atmosphere in Dulbecco's modified Eagle's medium (DMEM) plus 10% (v/v) heat-inactivated foetal calf serum, 100 U/ml penicillin, […] streptomycin. The day before stimulation, the macrophages were plated at a density of 2×10^6 cells per 6 cm plate and 2 h before stimulation, the medium removed and replaced with 2 ml of DMEM. Where indicated, […] (10 TM) and/or PD 98059 (50 Tm), or U0126 (10 TM) or Ro 318220 (5 TM), were added 1 h before stimulation.
Immunoblotting. For immunoblotting of CREB, nuclear cell extracts were prepared as described and immunoblotting performed using a phospho-specific antibody recognising CREB phosphorylated on Ser 133 and ATF1 phosphorylated on Ser 63. For immunoblotting of COX-2, cell lysate (30 Tg protein) was denatured in SDS, electrophoresed on 10% polyacrylamide gel, transferred to a nitrocellulose membrane, and immunoblotted with anti-COX-2 antibody (1.0 mg/ml). Detection of phosphorylated CREB and ATF1 and COX-2 was performed using the enhanced chemiluminescence reagent (ECL).
A general note: Immunoblotting shows a protein as a band on a membrane.

The test system of test [6] is HPRT mRNA. The test is described as follows: HPRT housekeeping gene mRNA in RAW 264 macrophages, RT-PCR. The conditions noted are these: PD 98059 (50 TM), SB 203580 (10 TM), Ro 318220 (5 TM). In kind it is cell-based, mouse. The method, then:
FIG. 21. Effect of PD 98059 and SB 203580 on gene transcription in RAW 264 macrophages. (A) Cells were stimulated for the times indicated with LPS (100 ng/ml). Total RNA was extracted at each time point and mRNA encoding IL-1, COX-2 and HRPT was determined using the reverse transcriptase polymerase chain reaction (Section 2.6). (B) As in A, except that the macrophages were incubated for 1 h in the presence or absence of PD 98059 (50 TM) and/or SB 203580 (10 TM), or Ro 318220 (5 TM), then stimulated for 3 h in the absence or presence of LPS, and in the continued presence or absence of the inhibitors. RTPCR was performed using oligonucleotides encoding fragments of IL-1, COX-2 and HPRT.
as §3
Reverse transcripts polymerase chain reactions. Total RNA was prepared from LPS-stimulated or control RAW 264 cells using the Rneasy Mini Kit according to the manufacturer's protocol. Total RNA was measured and 100 ng was reverse transcribed using Promega AMV reverse transcriptase (5 U/ml) with the oligonucleotides […] and […] TGA (coding for the IL-1 gene) and […] and […] (coding for the COX-2 gene). Conditions for PCR amplification of the resulting first-stand DNA template were 94° C. denaturing for 30 sec, 60° C. annealing for 1 min, 68° C. extension for 1 min, 30 cycles using thermostable Tf1 DNA polymerase (SU/ml), and 1 mM MgSO4.

Setting [7] is: 50 μM PD 98059, 10 μM SB 203580, arsenite 0.5 mM 15 min.

Take `COc1cccc(-c2cc(=O)c3ccccc3o2)c1N` [PD 98059]: in test [1], the “EGF-induced CREB phosphorylation” value was “prevented”. Besides, in test [2], the “TNF-induced phosphorylation of CREB after 15 min” value is listed as “slightly suppressed”; the “TNF-induced phosphorylation of CREB and ATF1 after 5 min” value is “unaffected”. Moreover, the “FGF-induced activation of MSK1” value in test [3] was “only partially suppressed”. The “FGF-induced phosphorylation of CREB” value in test [4] was “only inhibited slightly; also recorded: did not significantly suppress”. In test [5], the “LPS-stimulated induction of COX-2 protein” value (“LPS-stimulated induction” below) is recorded as “partially inhibited”. For the same compound, in test [6], the “mRNA encoding the housekeeping gene HPRT” value is recorded as “unaffected”.

Turning to `Cn1cc(C2=C(c3cn(CCCSC(=N)N)c4ccccc34)C(=O)NC2=O)c2ccccc21` [Ro 318220], in test [1], the “UV radiation-induced phosphorylation of CREB and ATF1” value is recorded as “largely inhibited”; the “EGF-induced CREB phosphorylation” value is “largely inhibited”. For the same compound, the “phosphorylation of CREB and ATF1 induced by forskolin” value in test [1] (5 μM Ro 318220, forskolin 20 μM, 15 min) is given as “unaffected”. The “TNF-induced CREB phosphorylation” value in test [2] (5 μM Ro 318220) is on record as “completely blocked”. Besides, the “MSK1 activation in cells” value in test [3] (5 μM Ro 318220, inhibitor removed on immunoprecipitation) is listed as “does not affect MSK1 activation”. The “phosphorylation of CREB at Ser133” value in test [4] (sodium arsenite or FGF, 5 μM Ro 318220) is on record as “largely suppressed”. The “LPS-stimulated induction” value in test [5] is listed as “suppresses”. The “mRNA encoding the housekeeping gene HPRT” value in test [6] is given as “unaffected”.

For the compound `C[S+]([O-])c1ccc(-c2nc(-c3ccncc3)c(-c3ccc(F)cc3)[nH]2)cc1` (stereo not shown) [SB 203580], in test [1], the “UV radiation-induced phosphorylation of CREB and ATF1” value is given as “inhibited”; the “EGF-induced CREB phosphorylation” value is “not SB203580”. Also, in test [2], the “TNF-induced phosphorylation of CREB after 15 min” value was “partially suppressed”; the “TNF-induced phosphorylation of CREB and ATF1 after 5 min” value is recorded as “prevented”. Further, in test [3], the “FGF-induced activation of MSK1” value is “only partially suppressed”. Also, the “sodium arsenite-induced activation of MSK1” value in test [3] (setting [7]) is reported as “prevented”. The “FGF-induced phosphorylation of CREB” value in test [4] is recorded as “only inhibited slightly”. In addition, the “sodium arsenite-induced activation of CREB” value in test [4] (setting [7]) was “prevented”. Also, the “LPS-stimulated induction” value in test [5] was “partially inhibited”. Besides, the “mRNA encoding the housekeeping gene HPRT” value in test [6] was “unaffected”.
